One block for each molecule: values may come before it.
Legend:
PSMA = target: T1, PSMA (Homo sapiens, UniProt Q04609); test: Competitive PSMA binding assay on LNCaP cells with ([125I]I-BA)KuE as radioligand; details: LNCaP cells 150,000/well, ([125I]I-BA)KuE c = 0.2 nM, HBSS (1% BSA), 4°C, 1 h, mean ± SD (n = 3); read-out: IC50 (PSMA affinity)
T1 construct: host or cells: LNCaP human prostate carcinoma cells
Description: (§1) Cell culture: PSMA^+ LNCaP cells (CLS: 300265) were grown in DMEM/Nutrition Mix F-12 with Glutamax-I (1:1) (Invitrogen, Life Technologies, Darmstadt, Germany) supplemented with 10% FCS. Cultures were maintained at 37°C in a 5% CO2/humidified air atmosphere. One day prior to the experiment, cells were harvested using Trypsin/EDTA (0.05% and 0.02%) in PBS, centrifuged and resuspended with culture medium. For cell counting, a Countesse automated cell counter (Invitrogen, Carlsbad, USA) was used. All in vitro binding and internalization studies were performed using live cells seeded 1 day prior to the experiment. For IC50 determination, 150,000 cells/mL were transferred to 24-well plates (1 mL/well), and for internalization studies, 125,000 cells/mL were transferred into PLL-coated 24-well plates.
Then, 25 μL/well of either HBSS (1% BSA; control) or of solutions containing the respective unlabelled ligand of interest in increasing concentrations (10^-10-10^-4 M in HBSS (1% BSA)) was added, followed by the addition of 25 μL of ([^125I]I-BA)KuE in HBSS (1% BSA). Experiments were carried out in triplicate for each concentration. The final radioligand concentration was 0.2 nM in all binding assays. Cells were incubated on ice for 60 min. Incubation was terminated by the removal of the incubation medium. Cells were thoroughly rinsed with 250 μL of HBSS. The wash medium was combined with the supernatant of the previous step. This fraction represents the amount of free radioligand. Cells were then lysed using 250 μL of 1 N NaOH, the lysate was transferred to vials and combined with 250 μL of HBSS used for rinsing the wells. Quantification of the amount of free and bound activity was performed in a γ-counter.
The PSMA binding affinities were determined in a competitive binding assay using LNCaP human prostate carcinoma cells and the known high affinity PSMA ligand ([^125I]I-BA)KuE [10] (c = 0.2 nM) as the radioligand. The IC50 values for the metal-free PSMA-inhibiting compounds and their respective ^natGa and ^natLu complexes are summarized in Table 1. HBED-CC-Ahx-KuE and [^natGa]HBED-CC-Ahx-KuE [12] were included in this study as reference compounds.

[1] = test system: PSMA-expressing LNCaP cells; test: Internalization studies / cell binding in LNCaP cells; format: cell-based, human; details: 37°C, 1 h, 125,000 cells/well, corrected for unspecific binding
Description: as §1
Internalization studies: The culture medium was removed, and the cells were washed once with 500 μL DMEM-F12 (5% BSA) before being left to equilibrate in 200 μL DMEM-F12 (5% BSA) at 37°C for a minimum of 15 min. Then, 25 μL (per well) of either DMEM-F12 (5% BSA) or of a 100-μM PMPA solution (blocking) was added, followed by the addition of 25 μL of ^68Ga/^177Lu-labelled PSMA ligand. The final radioligand concentration was 0.2/0.5 nM in all internalization assays. To determine internalization kinetics, cells were then incubated at 37°C for 5, 15, 30 and 60 min, respectively. Experiments were carried out in triplicate for each time point (control and blocking). Incubation was terminated by placing the plate on ice for approximately 1 min and by subsequent removal of the incubation medium. Cells were thoroughly rinsed with 250 μL of PBS. The wash medium was combined with the supernatant of the previous step. This fraction represents the amount of free radioligand. To remove receptor surface bound radioactivity, the cells were then incubated for 10 min with 250 μL of ice cold PMPA solution (10 μM in PBS). After removal of the supernatant, the cells were thoroughly rinsed with another 250 μL of ice cold PBS. Both fractions were combined. The internalized activity was released by incubation with 250 μL of 1 N NaOH, transferred to vials and combined with 250 μL of 1 N NaOH used for rinsing the wells. Quantification of the amount of free, PMPA-releasable and internalized activity was performed in a γ-counter.
The cellular uptake and internalization kinetics of the different ^68Ga- and ^177Lu-labelled PSMA ligands was determined using PSMA-expressing LNCaP cells. In the case of the ^68Ga-labelled compounds, the final peptide concentration in the assays was 0.2 nM. […] All internalization studies were accompanied by reference studies using ([^125I]I-BA)KuE (c = 0.2 nM). This experimental setup allows data normalization and eliminates the influence of cell count and cell viability on absolute cellular tracer uptake. […] Furthermore, to be able to discriminate between total cellular activity (sum of membrane associated and internalized activity) and internalized activity, all incubations were followed by a washing step with 10 μM PMPA at 4°C to remove specifically cell-surface bound radioligand by displacement.

[2] = Determination of lipophilicity (shake flask, n-octanol/PBS); format: physicochemical
Description: To a solution of 0.5 to 1 MBq of radiolabelled peptide in 500 μl of phosphate-buffered saline (PBS, pH 7.4), 500 μl of n-octanol was added (n = 6). Vials were vortexed vigorously for 3 min. To achieve quantitative phase separation, the vials were centrifuged at 6,000 g for 5 min in a Biofuge 15 (Heraeus Sepatech, Osterode, Germany). The activity concentrations in 100 μl-samples of both the aqueous and the organic phase were measured in a γ-counter. Both the partition coefficient P(o/w), which is defined as the molar concentration ratio of a single species A between n-octanol and water at equilibrium, and logP(o/w), which is an important parameter used to characterize lipophilicity of a compound, were calculated.
The partition coefficient logP between n-octanol and PBS was determined for the compounds listed in Table 3 using the shake flask method. All compounds are highly hydrophilic, with the DOTAGA compounds being up to one order of magnitude more hydrophilic than the corresponding DOTA analogues. Amongst all compounds tested, [^68Ga]HBED-CC-Ahx-KuE was the most hydrophilic compound.

[3] = In vivo metabolite analysis by radio-HPLC; details: CD-1 nu/nu mice, 0.5 h p.i.
Description: (§2) ^177Lu-10 and ^177Lu-11 were incubated in 80 μL of human serum (37°C) and 80 μL 0.4 M DTPA solution (RT), respectively and after 1, 24 and 48 h, the stability was determined by TLC analysis. The ^68Ga-labelled tracers (40 to 45 MBq) were injected into the tail vein of CD-1 nu/nu mice. The animals were sacrificed after 30 min, and urine, blood and kidney samples were taken. The kidney was frozen in liquid nitrogen, homogenized with a ball mill and extracted with 0.2 to 1 mL PBS containing 200 nmol 2-(phosphonomethyl)pentane-1,5-dioic acid (PMPA). The suspension was first centrifuged (15,000 g), and after ultrafiltration, the extracts were analysed by RP-HPLC. The blood samples were centrifuged to separate the plasma from the blood cells. Plasma proteins were removed by precipitation with acetonitrile (10 min, 4°C) and subsequent centrifugation and ultrafiltration. The blood extract was also analysed by RP-HPLC.
To investigate the influence of the amino acid composition of the spacer (KFF vs kff) on the metabolic stability in vivo, tissue homogenates and body fluids of mice injected with ^68Ga-11 and ^68Ga-12 were analysed by radio-HPLC. Extraction efficiencies from the blood and from the kidney were 56% and 43% for ^68Ga-11 and 61% and 62% for ^68Ga-12, respectively.

LNCaP tumour xenograft = test: Biodistribution in LNCaP-tumour-bearing mice; format: in vivo; details: LNCaP-tumour bearing CD-1 nu/nu mice, 1 h p.i.
Description: All animal experiments were conducted in accordance with general animal welfare regulations in Germany (Deutsches Tierschutzgesetz, approval #55.2-1-54-2532-71-13). The prostate cancer cell line LNCaP was suspended 1/1 in serum-free medium and Matrigel (BD Biosciences, Germany) and approximately 10^7 cells in 200 μL were inoculated subcutaneously on the right shoulder of 6 to 8 weeks old CD-1 nu/nu mice (Charles River Laboratories). Tumours were grown for 2 to 4 weeks (males) and 4 to 6 weeks (females) to reach 4 to 8 mm in diameter.
Biodistribution: The ^68Ga-labelled PSMA ligands (approximately 7 to 15 MBq, 0.1 to 0.2 nmol) were injected into the tail vein of isoflurane anesthetized animals. The organ distribution was examined 1 h p.i. and quantified in a γ-counter.
A comparison of the biodistribution of compounds ^68Ga-11, ^68Ga-12 and the reference [^68Ga]HBED-CC-Ahx-KuE in LNCaP-tumour-bearing CD-1 nu/nu mice (1 h p.i.) is shown in Figure 7.

[4] = Stability in human serum (TLC analysis); format: in vitro ADME; details: 37°C, 48 h
Description: as §2
(§3) The stability of ^177Lu-10 and ^177Lu-11 was investigated by incubation in human serum for 48 h at 37°C and by DTPA challenge (0.4 M, RT, 48 h) and subsequent TLC analysis. Release of ^177Lu^III from the complexes was not observed under the respective experimental conditions in the examined time frame.

[5] = DTPA challenge (TLC analysis); format: physicochemical; details: DTPA challenge 0.4 M, RT, 48 h
Description: as §2, §3

[6] = n-octanol/PBS pH 7.4, mean ± SD (n = 6)

T1 sequence (Q04609 whole entry): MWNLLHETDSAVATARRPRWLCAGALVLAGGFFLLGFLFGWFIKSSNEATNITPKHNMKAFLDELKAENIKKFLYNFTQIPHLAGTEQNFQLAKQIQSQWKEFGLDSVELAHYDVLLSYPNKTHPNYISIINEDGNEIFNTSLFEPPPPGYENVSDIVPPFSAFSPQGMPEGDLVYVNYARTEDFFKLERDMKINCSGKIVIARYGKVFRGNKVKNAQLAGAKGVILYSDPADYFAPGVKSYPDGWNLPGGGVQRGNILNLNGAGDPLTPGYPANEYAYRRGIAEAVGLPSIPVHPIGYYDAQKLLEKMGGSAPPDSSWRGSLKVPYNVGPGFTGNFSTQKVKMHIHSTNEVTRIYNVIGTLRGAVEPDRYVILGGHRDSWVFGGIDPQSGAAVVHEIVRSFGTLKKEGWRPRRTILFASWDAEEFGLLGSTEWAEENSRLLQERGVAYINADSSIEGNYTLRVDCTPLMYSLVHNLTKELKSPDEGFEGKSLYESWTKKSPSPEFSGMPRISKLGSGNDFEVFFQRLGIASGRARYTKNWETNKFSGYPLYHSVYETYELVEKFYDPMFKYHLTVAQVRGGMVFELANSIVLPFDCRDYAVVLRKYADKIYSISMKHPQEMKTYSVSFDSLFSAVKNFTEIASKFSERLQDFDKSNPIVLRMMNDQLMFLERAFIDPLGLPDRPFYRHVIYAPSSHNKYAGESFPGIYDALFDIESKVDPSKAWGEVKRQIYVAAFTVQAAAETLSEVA

IC50 (PSMA): 5.7 ± 0.5 nM
Molecule: O=C(O)CCc1ccc(O)c(CN(CCN(CC(=O)O)Cc2cc(CCC(=O)NCCCCCC(=O)NCCCC[C@H](NC(=O)N[C@@H](CCC(=O)O)C(=O)O)C(=O)O)ccc2O)CC(=O)O)c1 [HBED-CC-Ahx-KuE, reference compound]

Molecule: O=C(O)CC[C@H](NC(=O)N[C@@H](CCCCNC(=O)CCCCCCC(=O)NCCCC[C@H](NC(=O)[C@H](Cc1ccccc1)NC(=O)[C@H](Cc1ccccc1)NC(=O)CN1CCN(CC(=O)O)CCN(CC(=O)O)CCN(CC(=O)O)CC1)C(=O)O)C(=O)O)C(=O)O [compound 10, DOTA-FFK(Sub-KuE), reference compound]
IC50 (PSMA): 13.1 ± 2.3 nM

IC50 (PSMA): 10.2 ± 1.5 nM
Molecule: O=C(O)CC[C@H](NC(=O)N[C@@H](CCCCNC(=O)CCCCCCC(=O)NCCCC[C@H](NC(=O)[C@H](Cc1ccccc1)NC(=O)[C@H](Cc1ccccc1)NC(=O)CCC(C(=O)O)N1CCN(CC(=O)O)CCN(CC(=O)O)CCN(CC(=O)O)CC1)C(=O)O)C(=O)O)C(=O)O (some centres unmarked) [compound 11, DOTAGA-FFK(Sub-KuE)]

IC50 (PSMA): 13.9 ± 0.4 nM
Molecule: O=C(O)CC[C@H](NC(=O)N[C@@H](CCCCNC(=O)CCCCCCC(=O)NCCCC[C@@H](NC(=O)[C@@H](Cc1ccccc1)NC(=O)[C@@H](Cc1ccccc1)NC(=O)CCC(C(=O)O)N1CCN(CC(=O)O)CCN(CC(=O)O)CCN(CC(=O)O)CC1)C(=O)O)C(=O)O)C(=O)O (some centres unmarked) [compound 12, DOTAGA-ffk(Sub-KuE)]

log P (o/w) [2, 6]: −3.1 ± 0.2
Molecule: [^68Ga]DOTA-FFK(Sub-KuE) [^68Ga-10, reference compound]
Internalization (1 h) in % of ([125I]I-BA)KuE ([1]; 68Ga compounds, c = 0.2 nM): 14.6 ± 0.8%

Molecule: [^68Ga]DOTAGA-FFK(Sub-KuE) [^68Ga-11]
Internalization (1 h) in % of ([125I]I-BA)KuE ([1]; 68Ga compounds, c = 0.2 nM): 28.4 ± 0.7% | log P (o/w) [2, 6]: −3.6 ± 0.1 | Intact tracer in blood [3]: 21%

log P (o/w) [2, 6]: −4.1 ± 0.1 | Tracer uptake into liver (LNCaP tumour xenograft): 0.5 ± 0.1 % ID/g | Tracer uptake into lung (LNCaP tumour xenograft): 1.9 ± 0.4 % ID/g | Tracer uptake into pancreas (LNCaP tumour xenograft): 0.9 ± 0.2 % ID/g | Tracer uptake into spleen (LNCaP tumour xenograft): 14.7 ± 2.6 % ID/g | Tumour-to-blood ratio (LNCaP tumour xenograft): 12.5 ± 0.7 | Tumour-to-skeletal muscle ratio (LNCaP tumour xenograft): 16.2 ± 0.1 | Uptake into LNCaP tumour xenograft (LNCaP tumour xenograft): 4.7 ± 0.2 % ID/g
Molecule: [^68Ga]HBED-CC-Ahx-KuE [reference compound]
Internalization (1 h) in % of ([125I]I-BA)KuE ([1]; 68Ga compounds, c = 0.2 nM): 91.1 ± 1.7%

log P (o/w) [2, 6]: −2.7 ± 0.02 | Release of 177Lu(III) from the complex [4]: not observed | Release of 177Lu(III) from the complex [5]: not observed
Molecule: [^177Lu]DOTA-FFK(Sub-KuE) [^177Lu-10, reference compound]
Internalization (1 h) in % of ([125I]I-BA)KuE ([1]; 177Lu compounds, c = 0.5 nM): 19.3 ± 0.9%

Molecule: [^177Lu]DOTAGA-FFK(Sub-KuE) [^177Lu-11]
Internalization (1 h) in % of ([125I]I-BA)KuE ([1]; 177Lu compounds, c = 0.5 nM): 36.1 ± 1.1% | log P (o/w) [2, 6]: −3.9 ± 0.1 | Release of 177Lu(III) from the complex [4]: not observed | Release of 177Lu(III) from the complex [5]: not observed

Molecule: [^177Lu]DOTAGA-ffk(Sub-KuE) [^177Lu-12]
Internalization (1 h) in % of ([125I]I-BA)KuE ([1]; 177Lu compounds, c = 0.5 nM): 44.4 ± 1.8% | log P (o/w) ([2]; n-octanol/PBS, listed for 11/12 but determined for the FFK analogue 11 only (footnote a)): −3.9 ± 0.1

IC50 (PSMA): 29.5 ± 6.6 nM
Molecule: [^natGa]DOTA-FFK(Sub-KuE) [^natGa-10, reference compound]

Molecule: [^natGa]DOTAGA-FFK(Sub-KuE) [^natGa-11]
IC50 (PSMA): 12.1 ± 3.9 nM

Molecule: [^natGa]DOTAGA-ffk(Sub-KuE) [^natGa-12]
IC50 (PSMA): 15.9 ± 0.5 nM

IC50 (PSMA): 6.1 ± 0.8 nM
Molecule: [^natGa]HBED-CC-Ahx-KuE [reference compound]

IC50 (PSMA): 54.7 ± 6.1 nM
Molecule: [^natLu]DOTA-FFK(Sub-KuE) [^natLu-10, reference compound]

Molecule: [^natLu]DOTAGA-FFK(Sub-KuE) [^natLu-11]
IC50 (PSMA): 15.1 ± 1.5 nM

Molecule: [^natLu]DOTAGA-ffk(Sub-KuE) [^natLu-12]
IC50 (PSMA): 13.1 ± 2.2 nM

Reference: article PMC4452638, “Synthesis and preclinical evaluation of DOTAGA-conjugated PSMA ligands for functional imaging and endoradiotherapy of prostate cancer” (EJNMMI Research, 2014)
